Source: patent publication US20160089443A1, “PROTEIN-GRAPHENE NANOCOMPOSITE DRUG CARRIER” (NATIONAL CHIAO TUNG UNIVERSITY, priority 2014, published 2016)
≈ marks a conversion by molar mass, not a printed value.

Key:
[1] = system: in vivo tumors (RG2 cells); assay: Relative tumor volume after treatment with NIR irradiation; details: mice, 24 hours after the treatment
Procedure: In Experimental example 7, the targeting efficiency of the drug carrier of the present invention was tested by experiments on in vivo tumors (RG2 cells) of mice. The tumor temperature was also observed while undergoing NIR irradiation. Further, the effects on the volume of the tumors and the mass of the mice were observed through different conditions of treatment.
Referring to FIG. 15A, which is a relative tumor volume vs. time graph of mice after treated by different conditions. The treating conditions were PBS+NIR irradiation, pure DOX+NIR irradiation, non-drug loaded carriers+NIR irradiation, and carriers loaded with DOX+NIR irradiation, and changes in the relative tumor volume along time of which are represented by lines 910, 920, 930, and 940, respectively. The relative tumor volume was observed after 24 hours later of the treatment, and used the tumor volume right after the treatment as a base. […] As for the treatments of the PBS+NIR irradiation, i.e. line 910, and the pure DOX+NIR irradiation, i.e. line 920, the tumor volumes were increased. […] The treatment of the PBS+NIR irradiation, i.e. line 910, could not treat the tumor because there was no drug being injected. The treatment of the pure DOX+NIR irradiation, i.e. line 920, was difficult to reach the tumor region to have the effect of therapy because the drug was not encapsulated in carriers. […]

[2] = Mass of mice after treatment; format: in vivo; details: with NIR irradiation
Description: Further, referring to FIG. 15B, which is a mass vs. time graph of mice after treated by different conditions. The treating conditions were PBS+NIR irradiation, pure DOX+NIR irradiation, non-drug loaded carriers+NIR irradiation, and carriers loaded with DOX+NIR irradiation, and changes in the mass of the mice along time of which are represented by lines 950, 960, 970, and 980, respectively.

[3] = system: RG2 cells; assay: Toxicity tests for photothermal therapy in RG2 cells
Procedure: Toxicity tests for photothermal therapy: No carriers, non-drug loaded carriers, and drug carriers of the present invention with different DOX concentrations were independently incubated with RG2 cells in vitro for 1 hour, and irradiated by NIR for 5 minutes (808 nm, 2 W/cm^2). Then, the cells were stained by propidium iodide and observed by a confocal microscope, and the cell viabilities were calculated.
The conditions for bars 810, 820, and 830 were without using of DOX, and bars 810, 820, and 830 represents the cell viabilities of no carriers, which is as a control, carriers without the NIR irradiation, and carriers with the NIR irradiation, respectively. The conditions for bars 840, 850, and 860 were using of 0.25 μg/mL DOX, and bars 840, 850, and 860 represents the cell viabilities of pure DOX, which is as a control, carriers without the NIR irradiation, and carriers with the NIR irradiation, respectively. The conditions for bars 870, 880, and 890 were using of 0.05 μg/mL DOX, and bars 870, 880, and 890 represents the cell viabilities of pure DOX, which is as a control, carriers without the NIR irradiation, and carriers with the NIR irradiation, respectively. […] Bar 850 represents the drug carriers loaded with 0.25 μg/mL DOX, but not underwent the NIR irradiation after incubating with the cells. […] Bar 860 represents the drug carriers loaded with 0.25 μg/mL DOX, and underwent the NIR irradiation after incubating with the cells.

Structure (SMILES): COc1cccc2c1C(=O)c1c(O)c3c(c(O)c1C2=O)C[C@@](O)(C(=O)CO)C[C@@H]3O[C@H]1C[C@H](N)[C@H](O)[C@H](C)O1 [DOX, doxorubicin]
- relative tumor volume [1]: increased
- mass of mice over time [2]: no obvious difference in mass
- cell death ([3]; RG2 cells, pure DOX 0.25 μg/mL (bar 840)): about 50%
- cell viability at 0.05 μg/mL DOX compared with 0.25 μg/mL ([3]; RG2 cells, without NIR irradiation (bars 870, 880)): increased
- IC50 ([3]; Rattus norvegicus, RG2, read-out: half maximal inhibitory concentration (IC50)): ~0.25 µg/mL (≈ 0.46 µM)
